Results taken from patent EP2366394A1, “Characterization and validation of inhibitors and ligands of dipeptidyl aminopeptidase IV (DP IV)” (IMTM GmbH, priority 2010, dated 2011).
Read-outs that look alike come from different tables or passages of the source.

Legend:
T lymphocytes = assay: Inhibition of proliferation (DNA synthesis, tritium thymidine incorporation) of PHA-stimulated T lymphocytes; format: cell-based; details: Homo sapiens, T-lymphocyte, read-out: IC50(Tc) Measured DNA-Supp.
Protocol: Peripheral blood mononuclear cells (PBMC) from healthy human volunteers were freshly isolated by density gradient centrifugation. T lymphocytes (T cells, Tc) were isolated from PBMC fractions via nylon wool adherence. Cells were cultured in standard cell culture media and stimulated by addition of 1 µg/ml Phytohemagglutinine for 48 hours in 96 well flat-bottom microtitre plates. […] DNA synthesis of proliferating T cells was determined by incorporation of radio labelled tritium thymidine and subsequent radio detection. […] The IC50 value of proliferation suppression was assessed by graphical evaluation.

[1] = biological target: purified, recombinant human DPIV (Homo sapiens, UniProt P27487); assay: Inhibition of the enzymatic activity of DPIV, fluorogenic substrate (Ala-Pro)2-R110; format: biochemical; details: substrate 0.5 µM, pH 7.5; highest test concentration 25 µM; > 25: No inhibition
Chain of purified, recombinant human DPIV (P27487 whole entry): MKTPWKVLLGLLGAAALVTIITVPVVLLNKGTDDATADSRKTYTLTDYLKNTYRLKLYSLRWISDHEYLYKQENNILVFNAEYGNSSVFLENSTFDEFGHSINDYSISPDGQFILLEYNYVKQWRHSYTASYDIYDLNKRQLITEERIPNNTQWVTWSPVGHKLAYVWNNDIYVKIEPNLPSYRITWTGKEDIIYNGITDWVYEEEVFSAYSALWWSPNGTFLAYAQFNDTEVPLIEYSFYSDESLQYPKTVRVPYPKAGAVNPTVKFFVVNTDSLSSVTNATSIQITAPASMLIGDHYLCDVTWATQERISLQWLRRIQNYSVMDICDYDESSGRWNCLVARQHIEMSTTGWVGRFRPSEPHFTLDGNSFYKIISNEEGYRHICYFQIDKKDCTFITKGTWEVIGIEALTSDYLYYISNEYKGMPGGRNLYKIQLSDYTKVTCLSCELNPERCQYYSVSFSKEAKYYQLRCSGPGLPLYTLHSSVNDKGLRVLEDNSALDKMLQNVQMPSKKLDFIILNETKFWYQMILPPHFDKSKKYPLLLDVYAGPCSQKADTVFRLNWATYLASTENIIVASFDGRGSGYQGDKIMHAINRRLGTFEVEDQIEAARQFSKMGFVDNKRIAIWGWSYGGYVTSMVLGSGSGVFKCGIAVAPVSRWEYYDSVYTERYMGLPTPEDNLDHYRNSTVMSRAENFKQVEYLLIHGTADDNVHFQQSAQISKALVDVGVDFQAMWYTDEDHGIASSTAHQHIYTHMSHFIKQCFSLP
Protocol: The assay was performed in 0.05 M TRIS/HCl buffer, pH 7.5, supplemented with 0.05 % Triton® (v/v), 0.05 % BSA (w/v), 2 mM MgCl2.
The enzymatic activity of DPIV was assessed by the hydrolysis of the fluorogenic substrate Bis-(L-Alanyl-Prolyl)-Rhodamin-110 (Bis-Trifluoroacetate; abbreviation: (Ala-Pro)2-R110). The final substrate concentration was 0.5 µM.
The assay was performed in white microtitre plates for fluorescence measurements. The test items, substrate and enzyme, were diluted in assay buffer. […] For the calculation of IC50 values, at least 16 log2 dilutions of each test item were analyzed. As controls, the DPIV activity in the absence of test items as well as the spontaneous hydrolysis of the substrate was determined.

DP8/9 = assay: Inhibition of the enzymatic activity of DPIV related enzymes DP8/9; format: biochemical; details: > 25: No inhibition
Excerpt: Measurement of the enzymatic activity of DPIV and related enzymes

[2] = suppression of DNA synthesis of T cells, 1 µg/ml Phytohemagglutinine, 48 hours, graphical evaluation

Compound	IC50 (T lymphocytes; 48 h) [µM]	IC50 [1] [µM]	IC50 (T lymphocytes; [2]) [µM]	IC50 (DP8/9) [µM]
N[C@@H](CC(=O)N1CCn2c(nnc2C(F)(F)F)C1)Cc1cc(F)ccc1F [No. 1, (1R)-1-(2,5-Difluorobenzyl)-3-oxo-3-[3-(trifluoromethyl)-5,6-dihydro[1,2,4]triazolo[4,3-a]pyrazine-7(8H)-yl]propylamine]	200	–	–	–
CC(C)C(Oc1ccc(CNC(=O)C2CCCN2C(=O)CC(N)Cc2cc(F)ccc2F)cc1)C(=O)O (stereo not shown) [No. 2, 2-[({[1-(3-Amino, 2-(2, 5)-difluorophenylbutanoyl)pyrrolidin-2-yl]carbonyl}amino)-p-phenoxy]-3-methyl butanoic acid]	–	0.48	81	> 25
CC[C@H](C)[C@H](N)C(=O)N1CCSC1 [No. 4, (1S,2S)-2-Methyl-1-(1,3-thiazolidine-3-ylcarbonyl) butyl amine]	113	–	–	1.73
CC(C)(CNC(=O)CC(Cc1cc(F)ccc1F)NC(=O)OC(C)(C)C)CNC(=O)C(O)C(Cc1ccccc1)NC(=O)OC(C)(C)C (stereo not shown) [No. 6, 3-N-tert.-Butylcarbamato-5-phenyl-N-{3-[(3-amino-2-hydroxypropanoyl)-amino]-2,2-dimethylpropyl}-5-(2,5-difluorophenyl) pentane 3-amine]	8	> 25	–	> 25
CCCCCC(=O)NC(CC(=O)NCC(C)(C)CNC(=O)C(O)C(Cc1ccccc1)NC(=O)CCCCC)Cc1cc(F)ccc1F (stereo not shown) [No. 7, 3-Amino-5-phenyl-N-{3-[(3-amino-1-oxohexyl-2-hydroxypropanoyl)amino-1-oxohexyl]-2,2-dimethylpropyl}-5-(2,5-difluorophenyl)pentane 3-N-tert.butyl carbamate]	10	> 25	–	> 25
NC(CCCCNC(=O)c1ccc(S)nc1)C(=O)N1CCSC1 (stereo not shown) [No. 8, N-[5-Amino-6-oxo-6-(1,3-thiazolidine-3-yl)hexyl]-6-mercapto nicotinamide]	90	0.09	–	0.001
NC(CC(=O)N1CCn2c(nnc2C(F)(F)F)C1)Cc1cc(F)c(F)cc1F (stereo not shown) [No. 10, 3-Oxo-1-(2,4,5-trifluorobenzyl)-3-[3-(trifluoromethyl)-5,6-dihydro-[1,2,4]triazolo[4,3-a]pyrazine-7(8H)-yl]propyl amine]	–	–	148	15.3
NC(CC(=O)N1CCN(C(c2ccc(F)cc2)c2ccc(F)cc2)CC1)C(=O)N1Cc2ccccc2C1 (stereo not shown) [No. 13, 2-Amino-1-(1,3-dihydro-2H-isoindol-2-yl)-4-(4-bis(4-fluorophenyl)-methylpiperazine-1-yl) butane-1,4-dione]	6	–	–	–
NC(CNC(=O)c1cccc(NC(=O)C(O)C(N)Cc2ccc(-c3cccnc3)cc2)c1)Cc1cc(F)ccc1F (stereo not shown) [No. 15, 3-[(3-Amino-2-4-(4-(3-pyridinyl)-phenyl) hydroxybu-tanoyl)-amino]-N-(2-amino-5-(2,4-difluorophenyl)pentyl) ben-zamide]	–	–	24	8.5
Cc1[nH]c2ccccc2c1C(c1cc(Cl)ccc1O)N1CCOCC1 (stereo not shown) [No. 16, 4-Chloro-2-[(2-methyl-1H-indol-3-yl)(morpholin-4-yl)methyl]-benzenolate]	–	> 25	3	–
